Laboratory results as given in PubChem BioAssay (NCI).
Several values for one entry are separate records, joined by “and”; a condition that tells them apart may be missing. Equal entries are not always repeated.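 Test compounds were applied to cells in 96-well plates for 48 hours at 5 doses. Here, GI50 denotes the concentration required for 50% inhibition of growth. TGI: concentration producing complete growth inhibition.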

Key:
Experiment in all cases: NCI-60 cell line screen, 48 h
[1] = test system: BT-549 breast
[2] = test system: IGROV1 ovarian
[3] = test system: K-562 leukemia
[4] = test system: M14 melanoma
[5] = test system: MCF7 breast
[6] = test system: MDA-MB-435
[7] = test system: RPMI-8226 leukemia
[8] = test system: SK-OV-3 ovarian
[9] = test system: U251 CNS
[10] = test system: UO-31 renal

SMILES | GI50 [1] | TGI [1] | GI50 [2] | TGI [2] | GI50 [3] | TGI [3] | GI50 [4] | TGI [4] | GI50 [5] | TGI [5] | GI50 [6] | TGI [6] | GI50 [7] | TGI [7] | GI50 [8] | TGI [8] | GI50 [9] | TGI [9] | GI50 [10] | TGI [10]
COc1ccc2c(O)c(/C=C3\N=Nc4ncccc43)oc2c1C[C@H]1CCNC[C@H]1F | 211 nM | 2.3 µM | 353 nM | 5.06 µM | 436 nM | 27.4 µM | 589 nM | 3.64 µM | 207 nM | 9.18 µM | 467 nM | 10.6 µM | 286 nM | 1.06 µM | 1570 nM | 9.05 µM | 307 nM | 3.29 µM | 146 nM | 3.16 µM
S=c1nc[nH]c2nc[nH]c12 |  | > 750 µM | 23300 nM | > 100 µM and 695 µM and > 750 µM | 3340 nM | 446 µM and 251 µM | 418 nM and 3920 nM |  |  | > 100 µM and 512 µM and > 413 µM | 610 nM | > 750 µM | 1180 nM and 10300 nM | > 100 µM and 489 µM and 171 µM | 629 nM and 5060 nM | > 100 µM and 448 µM and > 750 µM | 19300 nM and 72400 nM | > 100 µM and 719 µM and > 750 µM | 4100 nM and 5550 nM | > 100 µM and 619 µM
C/C(=C1/N=C(c2ccccc2)OC1=O)c1ccc(C)cc1 |  | > 100 µM |  | > 100 µM |  | > 100 µM |  | > 100 µM |  | > 100 µM |  | > 100 µM |  | > 100 µM |  | > 100 µM |  | > 100 µM |  | 
COc1cc([N+](=O)[O-])c(S(=O)(=O)O)cc1N |  | > 100 µM |  | > 100 µM |  | > 100 µM |  | > 100 µM |  | > 100 µM |  | > 100 µM |  | > 100 µM |  | > 100 µM |  | > 100 µM |  | > 100 µM
c1ccc(CCCNc2nnnc3ccccc23)cc1 |  | > 100 µM |  | > 100 µM |  | > 100 µM |  | > 100 µM |  | > 100 µM |  | > 100 µM |  | > 100 µM |  | > 100 µM |  | > 100 µM |  | 
CNS(=O)(=O)c1ccccc1C(=N)c1ccccc1 |  | > 100 µM |  | > 100 µM |  | > 100 µM |  | > 100 µM |  | > 100 µM |  | > 100 µM |  | > 100 µM |  | > 100 µM |  | > 100 µM |  | > 100 µM
CCCCCCCCCCCCOC1C(CNCC2OC3OC(C)(C)OC3C2NC(=O)Nc2ccc(C(F)(F)F)cc2)OC2OC(C)(C)OC21 (stereo not given) | 7440 nM | 14.4 µM | 6770 nM | 15.6 µM | 32.7 nM | 2.62 µM | 8270 nM | 15.8 µM | 3530 nM | 7.94 µM | 5270 nM | 13.4 µM | 7060 nM | 18.7 µM | 9060 nM | 17.2 µM | 4630 nM | 12.2 µM | 7330 nM | 16.3 µM
Cc1cc(C(=O)N[C@@H](CCC(=O)O)C(=O)O)sc1CC[C@@H]1CNc2nc(N)[nH]c(=O)c2C1 | 88.3 nM | > 100 µM | 46.3 nM | > 100 µM | < 10 nM | > 100 µM | < 12.4 nM | > 100 µM | 10.2 nM | > 100 µM | 29.6 nM | > 100 µM | 64.8 nM | > 100 µM | < 20.5 nM | > 100 µM | 27.4 nM | > 100 µM | < 10 nM | > 100 µM
C[n+]1c2cc(N)ccc2cc2ccc(N)cc21 (tested in a mixture with another compound) | 624 nM | 5.25 µM | 140 nM | 1.48 µM | 200 nM | 1.25 µM | 1040 nM | 5.21 µM | 372 nM | 17.9 µM | 615 nM | 2.1 µM | 345 nM | 1.68 µM | 1350 nM | 6.15 µM | 448 nM | 3.65 µM | 106 nM | 0.598 µM
C[C@@H]1[C@H]2[C@H](C=C3[C@@H]4CC[C@H]5Cc6nc7c(nc6C[C@]5(C)[C@H]4C[C@@H](O)[C@@]32C)C[C@@H]2CC[C@H]3C4=C[C@@H]5O[C@@]6(CC[C@](C)(CO)O6)[C@@H](C)[C@@]5(O)[C@@]4(C)[C@H](O)C[C@@H]3[C@@]2(C)C7)O[C@]12CCC(C)(C)O2 | 338 nM | 15 µM | 2160 nM | 62.8 µM | 345 nM | 2.3 µM | 1220 nM | 10.5 µM | 490 nM | 15.3 µM | 2800 nM | 24.3 µM | 81.9 nM | 0.723 µM | 472 nM | 5.29 µM | 200 nM | 7.06 µM | 275 nM | 1.54 µM
CCN1/C(=C/C=C/C=C/c2sc3ccccc3[n+]2CC)Sc2ccccc21 | 213 nM | 1.18 µM | 503 nM | 2.14 µM | 65.2 nM | 0.512 µM | 416 nM | 1.49 µM | 290 nM | 1.3 µM | 314 nM | 1.31 µM | 149 nM | 2.21 µM | 359 nM | 1.13 µM | 234 nM | 1.54 µM | 1660 nM | 4.4 µM
